{"source": "ChEMBL document CHEMBL5321222", "about": "“N(14)-substituted evodiamine derivatives as dual topoisomerase 1/tubulin-Inhibiting anti-gastrointestinal tumor agents” (Eur J Med Chem, 2023)", "key": {"RKO [1]": {"system": "RKO", "assay": "Induction of cell cycle arrest in human RKO cells assessed as accumulation of cells at G2/M phase at 0.05 to 0.2 uM incubated for 24 hrs by propidium iodide staining based flow cytometry analysis", "assay_type": "functional", "details": "dose 0.05-0.2 µM"}, "MGC-803 [2]": {"system": "MGC-803", "assay": "Induction of cell cycle arrest in human MGC-803 cells assessed as accumulation of cells at G2/M phase at 0.05 to 0.2 uM incubated for 24 hrs by propidium iodide staining based flow cytometry analysis", "assay_type": "functional", "details": "dose 0.05-0.2 µM"}, "MGC-803 [3]": {"system": "MGC-803", "assay": "Inhibition of cell […] in human MGC-803 cells at 5 nM incubated for 24 hrs by scratch wound healing assay", "assay_type": "functional, cell-based"}, "SW480": {"system": "SW480", "assay": "Antiproliferative activity against human SW480 cells assessed as reduction in cell viability incubated for 72 hrs by MTT assay", "assay_type": "functional, cell-based", "details": "SW480, 72 h"}, "LoVo": {"system": "LoVo", "assay": "Antiproliferative activity against human LoVo cells assessed as reduction in cell viability incubated for 72 hrs by MTT assay", "assay_type": "functional, cell-based"}, "RKO [4]": {"system": "RKO", "assay": "Antiproliferative activity against human RKO cells assessed as reduction in cell viability incubated for 72 hrs by MTT assay", "assay_type": "functional, cell-based"}, "MGC-803 [5]": {"system": "MGC-803", "assay": "Antiproliferative activity against human MGC-803 cells assessed as reduction in cell viability incubated for 24 hrs by BrdU staining based fluorescence microscopic analysis", "assay_type": "functional", "details": "dose 10-90 nM"}, "RKO [6]": {"system": "RKO", "assay": "Antiproliferative activity against human RKO cells assessed as reduction in cell viability incubated for 24 hrs by BrdU staining based fluorescence microscopic analysis", "assay_type": "functional", "details": "dose 10-90 nM"}, "MGC-803 [7]": {"system": "MGC-803", "assay": "Inhibition of colony formation in human MGC-803 cells incubated for 7 days by crystal violet staining based assay", "assay_type": "functional, cell-based", "details": "dose 10-90 nM, time 7.0 day"}, "MGC-803 [8]": {"system": "MGC-803", "assay": "Induction of apoptosis in human MGC-803 cells assessed as late apoptotic cells at 0.2 uM incubated for 24 hrs by propidium iodide and Annexin V/FITC staining based flow cytometry assay (reference value: 4.10%)", "assay_type": "functional"}, "MGC-803 [9]": {"system": "MGC-803", "assay": "Induction of cell cycle arrest in human MGC-803 cells assessed as accumulation of cells at G2/M phase at 0.05 uM incubated for 24 hrs by propidium iodide staining based flow cytometry analysis", "assay_type": "functional"}, "[10]": {"assay": "Induction of cell cycle arrest in human RKO cells assessed as accumulation of cells at G2/M phase at 0.05 uM incubated for 24 hrs by propidium iodide staining based flow cytometry analysis", "assay_type": "functional"}, "MGC-803 [11]": {"system": "MGC-803", "assay": "Induction of apoptosis in human MGC-803 cells assessed as early apoptotic cells at 0.2 uM incubated for 24 hrs by propidium iodide and Annexin V/FITC staining based flow cytometry assay (reference value: 1.85%)", "assay_type": "functional"}, "MGC-803 [12]": {"system": "MGC-803", "assay": "Induction of apoptosis in human MGC-803 cells assessed as early apoptotic cells at 0.1 uM incubated for 24 hrs by propidium iodide and Annexin V/FITC staining based flow cytometry assay (reference value: 1.85%)", "assay_type": "functional"}, "MGC-803 [13]": {"system": "MGC-803", "assay": "Induction of apoptosis in human MGC-803 cells assessed as late apoptotic cells at 0.1 uM incubated for 24 hrs by propidium iodide and Annexin V/FITC staining based flow cytometry assay (reference value: 4.10%)", "assay_type": "functional"}, "RKO [14]": {"system": "RKO", "assay": "Induction of apoptosis in human RKO cells assessed as early apoptotic cells at 0.2 uM incubated for 24 hrs by propidium iodide and Annexin V/FITC staining based flow cytometry assay (reference value: 0.16%)", "assay_type": "functional"}, "RKO [15]": {"system": "RKO", "assay": "Induction of apoptosis in human RKO cells assessed as late apoptotic cells at 0.2 uM incubated for 24 hrs by propidium iodide and Annexin V/FITC staining based flow cytometry assay (reference value: 0.50%)", "assay_type": "functional"}, "RKO [16]": {"system": "RKO", "assay": "Induction of apoptosis in human RKO cells assessed as early apoptotic cells at 0.05 uM incubated for 24 hrs by propidium iodide and Annexin V/FITC staining based flow cytometry assay (reference value: 0.16%)", "assay_type": "functional"}, "RKO [17]": {"system": "RKO", "assay": "Induction of apoptosis in human RKO cells assessed as late apoptotic cells at 0.1 uM incubated for 24 hrs by propidium iodide and Annexin V/FITC staining based flow cytometry assay (reference value: 0.50%)", "assay_type": "functional"}, "MGC-803 [18]": {"system": "MGC-803", "assay": "Induction of morphological changes in human MGC-803 cells assessed as cell shrinkage at 0.05 to 0.2 uM incubated for 24 hrs by Giemsa staining based micrscopic analysis", "assay_type": "functional", "details": "dose 0.05-0.2 µM"}, "MGC-803 [19]": {"system": "MGC-803", "assay": "Induction of morphological changes in human MGC-803 cells assessed as cell deformation at 0.05 to 0.2 uM incubated for 24 hrs by Giemsa staining based micrscopic analysis", "assay_type": "functional", "details": "dose 0.05-0.2 µM"}, "RKO [20]": {"system": "RKO", "assay": "Induction of morphological changes in human RKO cells assessed as cell shrinkage at 0.05 to 0.2 uM incubated for 24 hrs by Giemsa staining based micrscopic analysis", "assay_type": "functional", "details": "dose 0.05-0.2 µM"}, "RKO [21]": {"system": "RKO", "assay": "Induction of morphological changes in human RKO cells assessed as formation of apoptotic bodies at 0.05 to 0.2 uM incubated for 24 hrs by Giemsa staining based micrscopic analysis", "assay_type": "functional, cell-based", "details": "dose 0.05-0.2 µM"}, "[22]": {"biological_target": "T1, DNA topoisomerase 1 (Homo sapiens) (UniProt P11387)", "T1 sequence (whole entry)": "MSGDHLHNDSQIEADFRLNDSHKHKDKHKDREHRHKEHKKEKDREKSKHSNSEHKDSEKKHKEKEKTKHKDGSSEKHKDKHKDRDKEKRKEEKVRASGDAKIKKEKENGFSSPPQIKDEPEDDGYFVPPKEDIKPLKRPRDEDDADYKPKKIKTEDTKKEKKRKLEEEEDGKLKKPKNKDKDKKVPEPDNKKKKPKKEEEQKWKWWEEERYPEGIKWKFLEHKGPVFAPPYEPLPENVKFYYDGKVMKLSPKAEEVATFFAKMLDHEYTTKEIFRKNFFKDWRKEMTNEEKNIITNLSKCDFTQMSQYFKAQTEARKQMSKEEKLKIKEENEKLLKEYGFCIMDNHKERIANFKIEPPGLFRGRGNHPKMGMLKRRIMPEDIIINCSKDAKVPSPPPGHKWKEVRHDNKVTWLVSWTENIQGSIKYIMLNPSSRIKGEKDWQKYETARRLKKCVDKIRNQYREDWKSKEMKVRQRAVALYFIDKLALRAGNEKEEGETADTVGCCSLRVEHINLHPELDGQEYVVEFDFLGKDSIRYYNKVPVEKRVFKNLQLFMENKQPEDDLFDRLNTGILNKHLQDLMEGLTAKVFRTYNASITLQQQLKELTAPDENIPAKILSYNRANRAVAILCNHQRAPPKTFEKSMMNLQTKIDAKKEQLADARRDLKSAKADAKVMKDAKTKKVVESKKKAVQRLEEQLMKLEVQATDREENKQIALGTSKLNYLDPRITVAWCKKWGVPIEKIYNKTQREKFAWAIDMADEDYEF", "assay": "Inhibition of topoisomerase 1 (unknown origin) at 200 uM using PBR322 DNA as substrate incubated for 30 mins by agarose gel electrophoresis"}, "[23]": {"biological_target": "T1, DNA topoisomerase 1 (Homo sapiens)", "assay": "Inhibition of topoisomerase 1 (unknown origin) at 50 uM using PBR322 DNA as substrate incubated for 30 mins by agarose gel electrophoresis relative to control"}, "Tubulin (Homo sapiens)": {"biological_target": "Tubulin (Homo sapiens) (UniProt P68371+Q9H4B7+P0DPH7+P68366+Q13509+Q71U36+P04350+Q3ZCM7+P07437+P68363+Q9BQE3+Q6PEY2+Q13885+Q9BVA1+Q9BUF5)", "assay": "Induction of microtubule disruption in human RKO cells assessed as atrophied nucleus at 50 to 200 nM incubated for 24 hrs by laser confocal microscopic analysis", "assay_type": "cell-based", "details": "dose 50-200 nM"}}, "note": "pIC50: −log10 of the molar value. Activity calls are given as the source filed them. The calls are words filed in the database; no cut-off is given here."}
{"smiles": "CCCN1c2ccccc2C(=O)N2CCc3c([nH]c4ccccc34)C21", "note": "(stereo unspecified)", "values": [{"measurement": "Activity", "setting": "RKO [1]", "value": "Active"}, {"measurement": "Activity", "setting": "MGC-803 [2]", "value": "Active"}, {"measurement": "inhibition", "setting": "MGC-803 [3]", "value": "Active"}, {"measurement": "pIC50", "setting": "SW480", "value": 6.15}, {"measurement": "pIC50", "setting": "LoVo", "value": 6.64}, {"measurement": "pIC50", "setting": "RKO [4]", "value": 6.70}, {"measurement": "Activity", "setting": "MGC-803 [5]", "value": "Dose-Dependent Effect"}, {"measurement": "Activity", "setting": "RKO [6]", "value": "Dose-Dependent Effect"}, {"measurement": "inhibition", "setting": "MGC-803 [7]", "value": "Dose-Dependent Effect"}, {"measurement": "Activity", "setting": "MGC-803 [8]", "value": 25.1, "unit": "%"}, {"measurement": "Activity", "setting": "MGC-803 [9]", "value": 40.55, "unit": "%"}, {"measurement": "Activity", "setting": "[10]", "value": 40.55, "unit": "%"}, {"measurement": "Activity", "setting": "MGC-803 [11]", "value": 12.28, "unit": "%"}, {"measurement": "Activity", "setting": "MGC-803 [12]", "value": 6.76, "unit": "%"}, {"measurement": "Activity", "setting": "MGC-803 [13]", "value": 24.63, "unit": "%"}, {"measurement": "Activity", "setting": "RKO [14]", "value": 14.35, "unit": "%"}, {"measurement": "Activity", "setting": "RKO [15]", "value": 37.67, "unit": "%"}, {"measurement": "Activity", "setting": "RKO [16]", "value": 9.67, "unit": "%"}, {"measurement": "Activity", "setting": "RKO [17]", "value": 33.41, "unit": "%"}, {"measurement": "Activity", "setting": "MGC-803 [18]", "value": "Active"}, {"measurement": "Activity", "setting": "MGC-803 [19]", "value": "Active"}, {"measurement": "Activity", "setting": "RKO [20]", "value": "Active"}, {"measurement": "Activity", "setting": "RKO [21]", "value": "Active"}, {"measurement": "inhibition", "setting": "[22]", "value": "Active"}, {"measurement": "inhibition", "setting": "[23]", "value": 58.3, "unit": "%"}, {"measurement": "Activity", "setting": "Tubulin (Homo sapiens)", "value": "Active"}]}
